A short description of the series: Vapor pressure by Donovan method. The format is physicochemical. The note with it: at 25° C. by Donovan method. As for the experimental part: Donovan method is a method reported by a person in New method for estimating vapor pressure by the use of gas chromatography: Journal of Chromatography A. 749, pp. 123-129 (1996).
Test pest controllers (a) and (b) were made by the pest controller 1 shown in FIG. 2 with chemical substance 22 containing compound (A) (2,3,5,6-tetrafluoro-4-methoxymethylbenzyl 3-(1-propenyl)-2,2-dimethylcyclopropanecarboxylate, the vapor pressure at 25° C. by Donovan method: 1.4×10^−5 mmHg) as an active ingredient.

As to `CC=CC1C(C(=O)OCc2c(F)c(F)c(COC)c(F)c2F)C1(C)C` (stereo not shown) [compound (A), 2,3,5,6-tetrafluoro-4-methoxymethylbenzyl 3-(1-propenyl)-2,2-dimethylcyclopropanecarboxylate], the vapor pressure was 1.4×10^−5 mmHg.

Source of the values: patent US20050112163A1, “PEST CONTROLLER AMD METHOD FOR CONTROLLING PESTS THEREWITH” (priority 2002, published 2005).
